According to patent US20070037788A1, “Tricyclic steroid hormone nuclear receptor modulators” (Eli Lilly and Company, priority 2003, published 2007):
Where a name gives a salt, the structure may show the parent alone.

Target: T1, human MR (Homo sapiens, UniProt P08235)
T1 construct: The full length human MR gene is cloned from a human kidney or human brain cDNA library; made in house; host or cells: SF9 insect cells (baculovirus)
T1 sequence (P08235 1-984): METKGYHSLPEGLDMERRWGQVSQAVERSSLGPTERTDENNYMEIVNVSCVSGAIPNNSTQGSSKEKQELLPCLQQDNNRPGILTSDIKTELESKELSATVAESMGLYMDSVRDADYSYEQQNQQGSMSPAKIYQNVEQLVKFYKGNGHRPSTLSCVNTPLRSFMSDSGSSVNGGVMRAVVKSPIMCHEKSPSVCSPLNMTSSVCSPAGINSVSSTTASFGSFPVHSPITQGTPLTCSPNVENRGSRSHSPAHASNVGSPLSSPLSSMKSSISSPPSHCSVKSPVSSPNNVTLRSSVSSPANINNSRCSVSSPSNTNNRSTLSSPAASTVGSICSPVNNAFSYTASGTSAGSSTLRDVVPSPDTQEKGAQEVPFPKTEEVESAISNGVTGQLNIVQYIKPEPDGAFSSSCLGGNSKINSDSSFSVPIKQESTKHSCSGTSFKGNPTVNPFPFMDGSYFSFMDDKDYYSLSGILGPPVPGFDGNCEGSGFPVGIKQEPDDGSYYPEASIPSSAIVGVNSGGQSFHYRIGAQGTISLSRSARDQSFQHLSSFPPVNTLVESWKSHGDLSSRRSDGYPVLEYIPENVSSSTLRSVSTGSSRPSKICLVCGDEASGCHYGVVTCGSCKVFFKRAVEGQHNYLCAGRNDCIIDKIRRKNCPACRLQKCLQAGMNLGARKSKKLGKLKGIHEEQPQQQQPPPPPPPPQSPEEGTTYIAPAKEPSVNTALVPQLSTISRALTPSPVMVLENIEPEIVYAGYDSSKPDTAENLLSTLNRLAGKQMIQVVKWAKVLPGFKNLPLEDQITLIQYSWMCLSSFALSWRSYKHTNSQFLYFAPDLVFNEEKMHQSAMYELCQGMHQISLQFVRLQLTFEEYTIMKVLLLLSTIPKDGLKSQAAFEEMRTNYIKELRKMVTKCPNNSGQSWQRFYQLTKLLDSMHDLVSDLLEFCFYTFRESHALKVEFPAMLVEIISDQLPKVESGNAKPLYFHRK
Assay: Mineralocorticoid Receptor Binding Assay (Method 1)
Details: [3H]-aldosterone
Description: The full length human MR gene is cloned from a human kidney or human brain cDNA library. Briefly, using synthetic oligonucleotide primers (Eli Lilly and Company, Indianapolis) directed to nucleotides 20-54 and 3700-3666 of the human MR, polymerase chain reaction (PCR) is performed under standard conditions using a human cDNA library. The PCR reaction is performed in a final volume of 50 μl containing about 1 μl of a 50× stock solution of polymerase; about 1 μl of a 50× stock solution of DNTP; about 5 μl of an appropriate PCR buffer; about 1 μl of each primer; about 5 μl of a H. kidney or H. brain cDNA library; and about 36 μl of water. The reaction is allowed to denature for about 30 seconds at 95 degrees Celsius, anneal for about 30 seconds at 55 degrees Celsius, and extend for about 5 minutes at 72 degrees Celsius, the sequence being repeated for a total of about 35 cycles. The desired PCR product (3.68 Kb) is confirmed by gel electrophoresis and subsequently cut from the gel and stored at about −20 degrees Celsius until extraction. To extract the cDNA product from the agarose gel, the QIAEX II Gel Extraction protocol (QIAGEN, Inc.) is employed according to the manufacturer's instructions. Following extraction, the MR cDNA is cloned into an appropriate cloning vector (Zero Blunt TOPO PCR Cloning Kit (Invitrogen, Inc.) and a pAcHLT-baculovirus transfer vector (B.D./Pharminogen), then expressed in SF9 insect cells, essentially according to manufacturer's instructions. Sf9 cells are grown at a scale where gram quantity cell pellets are obtained for subsequent use in the MR binding assay. Harvested cell pellets are lysed by repeated freeze-thaw cycles (about 4) in a suitable lysis buffer then centrifuged at about 1×10^3 G (with the supernatant being saved for future assays).
MR binding assays are performed in a final total volume of about 250 μl containing about 20-25 μg of protein and 0.5 nM of [^3H]-aldosterone plus varying concentrations of test compound or vehicle. The assay binding buffer consists of 30 mM sodium molybdate, 30 mM of TRIS-HCl, 5 mM sodium phosphate, 5 mM sodium pyrophosphate, and about 10% glycerol, pH=7.5.
Briefly, assays are prepared at RT in 96-well Falcon 3072 plates, each well containing 210 μl of binding buffer, 10 μl of [^3H]-aldosterone, 10 μl of test compound/vehicle, and 20 μl of the resuspended receptor protein extract. Incubations are carried out at 4 degrees Celsius with shaking for about 16 hours. 200 μl aliquots of each incubation are filtered onto Millipore HA 0.45 micron 96-well filter plates, pre-moistened with cold 30 mM TRIS-HCl. The filter plates are suctioned dry with vacuum and immediately washed 3× with cold 30 mM TRIS-HCl. The plates are then punched out and the amount of receptor-ligand complex is determined by liquid scintillation counting using 4 ml of Ready Protein Plus™ liquid scintillation cocktail.

Row | Compound | Ki [nM]
1 | CCN1CC[C@H](n2c(=O)[nH]c3cc(/C=C4\c5ccc(F)cc5COc5cc(F)ccc54)ccc32)C1 [Example 33] | < 500
2 | O=c1[nH]c2cc(/C=C3\c4ccc(F)cc4COc4cc(F)ccc43)ccc2n1C1CCNCC1 [Example 28] | < 500
3 | O=c1[nH]c2cc(/C=C3/c4ccc(F)cc4OCc4c(F)cccc43)ccc2n1[C@H]1CCNC1 [Example 37] | < 500
4 | O=c1[nH]c2cc(/C=C3/c4ccc(F)cc4OCc4c(F)cccc43)ccc2n1CCN1CCNCC1 [Example 43] | < 500
5 | CN1CCC(n2c(=O)[nH]c3cc(/C=C4\c5ccc(F)cc5COc5cc(F)ccc54)ccc32)CC1 [Example 4, 5-(3,8-Difluoro-6H-dibenzo[b,e]oxepin-11-ylidenemethyl)-1-(1-methyl-piperidin-4-yl) -1,3-dihydro-benzoimidazol-2-one, E isomer] | < 500
6 | CN1CCC(n2c(=O)[nH]c3cc(/C=C4\c5ccccc5COc5cc(F)ccc54)ccc32)CC1 [Example 3, 5-(3-Fluoro-6H-dibenzo[b,e]oxepin-11-ylidenemethyl)-1-(1-methyl-piperidin-4-yl)-1,3-dihydro-benzoimidazol-2-one, E isomer] | < 500
7 | CC(C)(CN1CCOCC1)n1c(=O)[nH]c2cc(/C=C3/c4ccc(F)cc4OCc4c(F)cccc43)ccc21 [Example 40] | < 500
8 | CN1CCN(CCn2c(=O)[nH]c3cc(/C=C4/c5ccc(F)cc5OCc5c(F)cccc54)ccc32)CC1 [Example 34] | < 500
9 | CC(C)(CN1CCOCC1)n1c(=O)[nH]c2cc(/C=C3\c4ccccc4COc4cc(F)ccc43)ccc21 [Example 1, 1-(1,1-Dimethyl-2-morpholin-4-yl-ethyl)-5-(3-fluoro-6H-dibenzo[b,e]oxepin-11-ylidenemethyl)-1,3-dihydro-benzoimidazol-2-one, E isomer] | < 500
10 | CN1CC[C@H](n2c(=O)[nH]c3cc(/C=C4\c5ccc(F)cc5COc5cc(F)ccc54)ccc32)C1 [Example 32] | < 500
11 | O=c1[nH]c2cc(/C=C3/c4ccc(F)cc4OCc4c(F)cccc43)ccc2n1CCN1CCCC1 [Example 35] | < 500
12 | O=c1[nH]c2cc(/C=C3\c4ccc(F)cc4COc4cc(F)ccc43)ccc2n1[C@@H]1CCNC1 [Example 31] | < 500
13 | CN1CCN(CCn2c(=O)[nH]c3cc(/C=C4\c5ccccc5COc5cc(F)ccc54)ccc32)CC1 [Example 8] | < 500
14 | C[C@@H](CN1CCOCC1)n1c(=O)[nH]c2cc(/C=C3\c4ccc(F)cc4COc4cc(F)ccc43)ccc21 [Example 23] | < 500
15 | C[C@H](CN1CCOCC1)n1c(=O)[nH]c2cc(/C=C3/c4ccc(F)cc4OCc4c(F)cccc43)ccc21 [Example 38] | < 500
16 | C[C@@H](CN1CCOCC1)n1c(=O)[nH]c2cc(/C=C3/c4ccc(F)cc4OCc4c(F)cccc43)ccc21 [Example 39] | < 500
17 | C[C@H](CN1CCOCC1)n1c(=O)[nH]c2cc(/C=C3\c4ccccc4COc4cc(F)ccc43)ccc21 [Example 10] | < 500
18 | O=c1[nH]c2cc(/C=C3\c4ccccc4COc4cc(F)ccc43)ccc2n1C1CCNC1 (centres unmarked) [Example 16] | < 500
19 | O=c1[nH]c2cc(/C=C3\c4ccccc4COc4cc(F)ccc43)ccc2n1C[C@@H]1CCCN1 [Example 18] | < 500
20 | O=c1[nH]c2cc(/C=C3\c4ccccc4COc4cc(F)ccc43)ccc2n1[C@H]1CCNC1 [Example 9] | < 500
21 | O=c1[nH]c2cc(/C=C3\c4ccccc4COc4cc(F)ccc43)ccc2n1C1CNC1 [Example 17] | < 500
22 | CCN1CC[C@@H](n2c(=O)[nH]c3cc(/C=C4\c5ccc(F)cc5COc5cc(F)ccc54)ccc32)C1 [Example 5, 5-(3,8-Difluoro-6H-dibenzo[b,e]oxepin-11-ylidenemethyl)-1-(1-ethyl-pyrrolidin-3-yl) -1,3-dihydro-benzoimidazol-2-one, HOAc salt, E isomer, chiral] | < 500
23 | C[C@@H]1CN(CCn2c(=O)[nH]c3cc(/C=C4\c5ccc(F)cc5COc5cc(F)ccc54)ccc32)C[C@H](C)O1 [Example 25] | < 500
24 | CN1CCN(CCn2c(=O)[nH]c3cc(/C=C4\c5ccc(F)cc5COc5cc(F)ccc54)ccc32)CC1 [Example 20] | < 500
25 | CN1CCN(CCCn2c(=O)[nH]c3cc(/C=C4\c5ccccc5COc5cc(F)ccc54)ccc32)CC1 [Example 7] | < 500
26 | O=c1[nH]c2cc(/C=C3\c4ccc(F)cc4COc4cc(F)ccc43)ccc2n1CCCN1CCOCC1 [Example 26] | < 500
27 | O=c1[nH]c2cc(/C=C3\c4ccccc4COc4cc(F)ccc43)ccc2n1CCN1CCNCC1 [Example 14] | < 500

Results, then the compound that gave them:

Row | Ki [nM] | Compound
28 | < 500 | CN1CCC(n2c(=O)[nH]c3cc(/C=C4/c5ccc(F)cc5OCc5c(F)cccc54)ccc32)CC1 [Example 2, 5-(3,7-Difluoro-6H-dibenzo[b,e]oxepine-11-ylidenemethyl)-1-(1-methyl-piperidin-4-yl)-1,3-dihydro-benzoimidazol-2-one, E-isomer]
29 | < 500 | CCN1CC[C@@H](n2c(=O)[nH]c3cc(/C=C4/c5ccc(F)cc5OCc5c(F)cccc54)ccc32)C1 [Example 46]
30 | < 500 | CC(C)(CN1CCOCC1)n1c(=O)[nH]c2cc(/C=C3\c4ccc(F)cc4COc4cc(F)ccc43)ccc21 [Example 24]
31 | < 500 | O=c1[nH]c2cc(/C=C3\c4ccc(F)cc4COc4cc(F)ccc43)ccc2n1CCN1CCCC1 [Example 21]
32 | < 500 | O=c1[nH]c2cc(/C=C3\c4ccc(F)cc4COc4cc(F)ccc43)ccc2n1C1CNC1 [Example 30]
33 | < 500 | O=c1[nH]c2cc(/C=C3\c4ccc(F)cc4COc4cc(F)ccc43)ccc2n1[C@H]1CCNC1 [Example 29]
34 | < 500 | CN1CC[C@H](n2c(=O)[nH]c3cc(/C=C4/c5ccc(F)cc5OCc5c(F)cccc54)ccc32)C1 [Example 45]
35 | < 500 | O=c1[nH]c2cc(/C=C3\c4ccccc4COc4cc(F)ccc43)ccc2n1C[C@H]1CCCN1 [Example 19]
36 | < 500 | CCN1CC[C@H](n2c(=O)[nH]c3cc(/C=C4/c5ccc(F)cc5OCc5c(F)cccc54)ccc32)C1 [Example 44]
37 | < 500 | C[C@@H]1CN(CCn2c(=O)[nH]c3cc(/C=C4\c5ccccc5COc5cc(F)ccc54)ccc32)C[C@H](C)O1 [Example 13]
38 | < 500 | O=c1[nH]c2cc(/C=C3/c4ccc(F)cc4OCc4c(F)cccc43)ccc2n1CCCN1CCOCC1 [Example 42]
39 | < 500 | C[C@H](CN1CCOCC1)n1c(=O)[nH]c2cc(/C=C3\c4ccc(F)cc4COc4cc(F)ccc43)ccc21 [Example 22]
40 | < 500 | O=c1[nH]c2cc(/C=C3\c4ccccc4COc4cc(F)ccc43)ccc2n1C1CCNCC1 [Example 12]
41 | < 500 | O=c1[nH]c2cc(/C=C3/c4ccc(F)cc4OCc4c(F)cccc43)ccc2n1C1CCNCC1 [Example 36]
